Measured values from publication PMC8580996, “2-Oxoglutarate derivatives can selectively enhance or inhibit the activity of human oxygenases” (Nature Communications, 2021).
Values joined by “and” are separate entries in the source; they are usually repeats but may differ in a detail not shown here. Identical values can stand only once. Like-named read-outs stand apart in the source and are kept apart here.

Legend:
[1] = target: T1, FIH (Homo sapiens, UniProt Q9NWT6); test: SPE-MS FIH inhibition assay; type: biochemical; as to IC50 FIH: 0.15 µM FIH
T1 sequence (Q9NWT6 whole entry): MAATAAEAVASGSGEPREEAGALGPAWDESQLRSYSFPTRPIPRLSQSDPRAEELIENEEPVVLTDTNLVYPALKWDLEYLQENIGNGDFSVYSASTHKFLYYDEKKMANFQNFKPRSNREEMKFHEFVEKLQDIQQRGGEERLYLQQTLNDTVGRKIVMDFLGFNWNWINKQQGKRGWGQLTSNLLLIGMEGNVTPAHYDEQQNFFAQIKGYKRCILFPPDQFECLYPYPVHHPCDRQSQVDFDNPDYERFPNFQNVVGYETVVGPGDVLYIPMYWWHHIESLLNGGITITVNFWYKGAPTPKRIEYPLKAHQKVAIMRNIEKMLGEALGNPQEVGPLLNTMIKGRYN
Description: FIH inhibition assays were performed as described, using cosubstrate/cofactor stock solutions (L-ascorbic acid, LAA: 50 mM in MQ-grade water; 2-oxoglutarate, 2OG: 10 mM in MQ-grade water; ammonium iron(II) sulfate hexahydrate, FAS, (NH4)2Fe(SO4)2·6H2O: 400 mM in 20 mM HCl diluted to 1 mM in MQ-grade water), which were freshly prepared from commercially-sourced solids (Sigma Aldrich).
Dimethyl sulfoxide (DMSO) solutions of the 2OG derivatives were dry dispensed across 384-well polypropylene assay plates (Greiner) in an approximately threefold and 11-point dilution series (100 μM top concentration; the final DMSO assay concentration was kept constant at 0.5%v/v) using an ECHO 550 acoustic dispenser (Labcyte). […] Each reaction was performed in technical duplicates in adjacent wells of the assay plates; additionally, assays were performed in two independent duplicates on different days using different inhibitor solutions.
The Enzyme Mixture (25 μL/well), containing 0.3 μM His6-FIH in buffer (50 mM Tris, 50 mM NaCl, pH 7.5), was dispensed across the inhibitor-containing 384-well assay plates with a multidrop dispenser (ThermoFischer Scientific) at 20 °C under an ambient atmosphere. The plates were subsequently centrifuged (1000 rpm, 15 s) and incubated for 15 min at 20 °C. The Substrate Mixture (25 μL/well), containing 10.0 μM HIF-1α788–822[37] substrate, 200 μM LAA, 20.0 μM 2OG, and 20.0 μM FAS in buffer (50 mM Tris, 50 mM NaCl, pH 7.5), was added using the multidrop dispenser. The plates were centrifuged (1000 rpm, 15 s) and after incubating for 15 min, the enzyme reaction was stopped by the addition of 10%v/v aqueous formic acid (5 μL/well). The plates were then centrifuged (1000 rpm, 30 s) and analyzed by MS.
(§1) MS-analyses were performed using a RapidFire RF 365 high-throughput sampling robot (Agilent) attached to an iFunnel Agilent 6550 accurate-mass quadrupole time-of-flight mass spectrometer operated in the positive ionization mode. Assay samples were aspirated under vacuum for 0.6 s and loaded onto a C4 SPE cartridge. After loading, the C4 SPE cartridge was washed with 0.1%v/v aqueous formic acid to remove non-volatile buffer salts (5.5 s, 1.5 mL/min). […] The mass spectrometer was operated using the MassHunter Workstation B.08.00 software (Agilent), the mass spectrometer parameters were: capillary voltage (4000 V), nozzle voltage (1000 V), fragmentor voltage (365 V), gas temperature (280 °C), gas flow (13 L/min), sheath gas temperature (350 °C), sheath gas flow (12 L/min). The m/z + 2 (for CA1–20) or +3 (for HIF-1α788–822) charge states of the peptide (substrate) and the hydroxylated peptide (product) were used to extract ion chromatogram data, peak areas were integrated using RapidFire Integrator 4.3.0 (Agilent). Data were exported into Microsoft Excel and used to calculate the % conversion of the hydroxylation reaction using the equation: % conversion = 100 × (integral product peptide)/(integral substrate peptide+integral product peptide). […] Z′-factors were calculated according to the cited literature using Microsoft Excel (Supplementary Fig. 26)[83].
SPE-MS FIH inhibition assays were performed as described in the Methods section.
Tris, 50 mM NaCl, pH 7.5, 20 °C). […]

[2] = target: T2, AspH (Homo sapiens, UniProt Q12797); set-up: method as in PMID 34163896; settings: hFX-CP101–119 substrate, 330 μM 2OG or 2OG derivative, t = 15 min; cited from earlier work
T2 construct: the tetratricopeptide repeat domain (His6-AspH315-758), was produced and purified as previously reported; made in house
T2 sequence (Q12797 315-758): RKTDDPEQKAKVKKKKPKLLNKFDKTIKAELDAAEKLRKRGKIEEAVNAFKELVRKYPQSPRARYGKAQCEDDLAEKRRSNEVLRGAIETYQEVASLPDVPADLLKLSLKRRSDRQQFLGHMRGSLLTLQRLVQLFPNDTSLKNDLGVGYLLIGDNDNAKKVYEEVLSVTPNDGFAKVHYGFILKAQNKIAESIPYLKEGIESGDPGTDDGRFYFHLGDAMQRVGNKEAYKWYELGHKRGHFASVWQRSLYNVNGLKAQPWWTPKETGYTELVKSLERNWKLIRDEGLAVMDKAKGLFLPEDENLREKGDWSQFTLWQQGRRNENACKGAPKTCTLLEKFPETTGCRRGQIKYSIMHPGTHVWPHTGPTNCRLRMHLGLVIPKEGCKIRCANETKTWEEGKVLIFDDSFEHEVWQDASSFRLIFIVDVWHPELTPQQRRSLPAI

[3] = target: T1, FIH; test: SPE-MS FIH turnover (cosubstrate) assay in the absence of 2OG; type: biochemical; settings: 330 μM 2OG or 2OG derivative, no 2OG, t = 15 min
Description: The ability of 35 synthetic C3/C4-substituted 2OG derivatives, which were prepared via a reported procedure (Supplementary Fig. 1 and Supplementary Methods)[21], to sustain catalysis by purified recombinant FIH in the absence of 2OG was examined using an assay directly monitoring substrate depletion and product formation (i.e., a +16 Da mass shift) by solid-phase extraction (SPE) coupled to mass spectrometry (SPE-MS)[44],[45]. […] (i.e. CA1–20)[47], were used as FIH substrates to test for potential substrate-dependent differences in terms of cosubstrate analog selectivity.
as §1, with “Assay” for “MS-analyses were performed using a RapidFire RF 365 high-throughput sampling robot (Agilent) attached to an iFunnel Agilent 6550 accurate-mass quadrupole time-of-flight mass spectrometer operated in the positive ionization mode. Assay”, “The m/z + 2 (for CA1–20) or +3 (for HIF-1α788–822) charge states of the peptide (substrate) and the hydroxylated peptide (product) were used to extract ion chromatogram data, peak areas were integrated using RapidFire Integrator 4.3.0 (Agilent).” left out

[4] = target: T2, AspH; settings: cited from earlier work
[5] = source data of Table 3, single independent replicates, read-out: FIH IC50, independent replicate
[6] = 0.05 μM AspH, 1.0 μM hFX-CP101-119, 3.0 μM 2OG, ref 21 (supplementary ref 1)
[7] = […] FIH, 5.0 μM HIF-1α788-822, 10 μM 2OG, mean of two runs
[8] = […] FIH, 5.0 μM HIF-1α788-822, 10 μM 2OG, mean of two runs, read-out: IC50 FIH

CCC(CC(=O)O)C(=O)C(=O)O (centres unmarked) [compound 2, 3-ethyl 2OG]
IC50 [1, 5]: 4.54 µM and 4.52 µM | AspH activity, %-substrate conversion [2]: <1% | FIH activity, %-substrate conversion ([3]; CA1–20 substrate): ~20% | FIH activity, %-substrate conversion ([3]; HIF-1α788–822 substrate): ~2% | IC50 [4, 6]: ~1.2 µM

O=C(O)C(=O)c1cccc(C(=O)O)c1 [compound 27]
IC50 FIH [1, 7]: inactive | AspH activity, %-substrate conversion [2]: <1% | FIH activity, %-substrate conversion ([3]; CA1–20 substrate): ^c<1% ^d<1% | FIH activity, %-substrate conversion ([3]; HIF-1α788–822 substrate): ^c<1% ^d<1% | IC50 AspH [4, 6]: inactive

O=C(O)C(=O)c1ccccc1C(=O)O [compound 26]
IC50 FIH [1, 7]: inactive | AspH activity, %-substrate conversion [2]: <1% | FIH activity, %-substrate conversion ([3]; CA1–20 substrate): ^c<1% ^d<1% | FIH activity, %-substrate conversion ([3]; HIF-1α788–822 substrate): ^c<1% ^d<1% | IC50 AspH [4, 6]: inactive

Cc1cc(C(=O)O)ccc1C(=O)C(=O)O [compound 33]
IC50 FIH [1, 7]: inactive | AspH activity, %-substrate conversion [2]: ~5% | FIH activity, %-substrate conversion ([3]; CA1–20 substrate): ^c<1% ^d<1% | FIH activity, %-substrate conversion ([3]; HIF-1α788–822 substrate): ^c<1% ^d<1% | IC50 AspH [4, 6]: inactive

O=C(O)C(=O)C12CCC(C(=O)O)(CC1)CC2 [compound 25]
IC50 FIH [1, 7]: inactive | AspH activity, %-substrate conversion [2]: ~8% | FIH activity, %-substrate conversion ([3]; CA1–20 substrate): ^c<1% ^d<1% | FIH activity, %-substrate conversion ([3]; HIF-1α788–822 substrate): ^c<1% ^d<1% | IC50 AspH [4, 6]: inactive

CC1(C)c2ccccc2-c2ccc(CC(CC(=O)O)C(=O)C(=O)O)cc21 (centres unmarked) [compound 11, 3-((9,9-dimethyl-9H-fluoren-2-yl)methyl)-2OG]
IC50 [1, 5]: 1.83 µM and 1.86 µM | AspH activity, %-substrate conversion [2]: <1% | FIH activity, %-substrate conversion ([3]; CA1–20 substrate): ^c<1% ^d<1% | FIH activity, %-substrate conversion ([3]; HIF-1α788–822 substrate): ^c<1% ^d<1% | IC50 [4, 6]: 4.3 µM

O=C(O)C(=O)N[C@H](Cc1ccccc1)C(=O)O [NOFD, N-oxalyl-D-phenylalanine, reference compound]
IC50 ([4]; NOFD control, supplementary ref 13): 15.5 µM

CC(C)CC(CC(=O)C(=O)O)C(=O)O (centres unmarked) [compound 16, 4-isobutyl-2OG]
selectivity of AspH over FIH inhibition as judged by IC50-values [1]: ~ 70 fold | AspH activity, %-substrate conversion [2]: <1% | FIH activity, %-substrate conversion ([3]; CA1–20 substrate): ~3% | FIH activity, %-substrate conversion ([3]; HIF-1α788–822 substrate): < 1% | IC50 [4, 6]: ~0.5 µM

COc1ccc(CC(CC(=O)O)C(=O)C(=O)O)cc1 (centres unmarked) [compound 9]
IC50 [1, 8]: 3.6 µM | AspH activity, %-substrate conversion [2]: <1% | FIH activity, %-substrate conversion ([3]; CA1–20 substrate): ^c<1% ^d<1% | FIH activity, %-substrate conversion ([3]; HIF-1α788–822 substrate): ^c<1% ^d<1%

CCCC(CC(=O)O)C(=O)C(=O)O (centres unmarked) [compound 3, 3-propyl-2OG]
IC50 [1, 5]: 2.64 µM and 2.68 µM | AspH activity, %-substrate conversion [2]: <1% | FIH activity, %-substrate conversion ([3]; CA1–20 substrate): ~10% | FIH activity, %-substrate conversion ([3]; HIF-1α788–822 substrate): < 1% | IC50 [4, 6]: ~5.7 µM

O=C(O)C(=O)c1ccc(C(=O)O)cc1F [compound 29]
IC50 FIH [1, 7]: inactive | AspH activity, %-substrate conversion [2]: ~45% | FIH activity, %-substrate conversion ([3]; CA1–20 substrate): ^c<1% ^d<1% | FIH activity, %-substrate conversion ([3]; HIF-1α788–822 substrate): ^c<1% ^d<1% | IC50 AspH [4, 6]: inactive

O=C(O)C(=O)c1ccc(C(=O)O)cc1Br [compound 31]
IC50 FIH [1, 7]: inactive | AspH activity, %-substrate conversion [2]: ~20% | FIH activity, %-substrate conversion ([3]; CA1–20 substrate): ^c<1% ^d<1% | FIH activity, %-substrate conversion ([3]; HIF-1α788–822 substrate): ^c<1% ^d<1% | IC50 AspH [4, 6]: inactive

O=C(O)C(=O)c1ccc(C(=O)O)c(F)c1 [compound 30]
IC50 FIH [1, 7]: inactive | AspH activity, %-substrate conversion [2]: ~8% | FIH activity, %-substrate conversion ([3]; CA1–20 substrate): ^c<1% ^d<1% | FIH activity, %-substrate conversion ([3]; HIF-1α788–822 substrate): ^c<1% ^d<1% | IC50 AspH [4, 6]: inactive

O=C(O)C(=O)c1ccc(C(=O)O)c(Br)c1 [compound 32]
IC50 FIH [1, 7]: inactive | AspH activity, %-substrate conversion [2]: ~8% | FIH activity, %-substrate conversion ([3]; CA1–20 substrate): ^c<1% ^d<1% | FIH activity, %-substrate conversion ([3]; HIF-1α788–822 substrate): ^c<1% ^d<1% | IC50 AspH [4, 6]: inactive

CC(C)(C)CCC(CC(=O)C(=O)O)C(=O)O (centres unmarked) [compound 17]
IC50 [1, 8]: 38.9 µM | AspH activity, %-substrate conversion [2]: <1% | FIH activity, %-substrate conversion ([3]; CA1–20 substrate): ^c<1% ^d<1% | FIH activity, %-substrate conversion ([3]; HIF-1α788–822 substrate): ^c<1% ^d<1%

O=C(O)C(=O)c1cscc1C(=O)O [compound 34]
IC50 FIH [1, 7]: inactive | AspH activity, %-substrate conversion [2]: <1% | FIH activity, %-substrate conversion ([3]; CA1–20 substrate): ^c<1% ^d<1% | FIH activity, %-substrate conversion ([3]; HIF-1α788–822 substrate): ^c<1% ^d<1% | IC50 AspH [4, 6]: inactive
